In patent US20240299431A1, “NEW SYNTHETIC AGONISTS OF TLR4 RECEPTOR” (UNIVERSITÀ DEGLI STUDI DI MILANO - BICOCCA, priority 2021, published 2024):
“Also recorded” adds a separate entry of the source. Read-outs that look alike come from different tables or passages of the source.

How the values were obtained:
[1] = molecular target: T1, human TLR2 (Homo sapiens, UniProt O60603); assay: HEK-Blue hTLR2 SEAP reporter assay; type: cell-based; details: HEK-Blue hTLR2 cells, compounds 0.1-25 μM; PAM2CSK4 positive control (1 ng/mL)
T1 construct: host or cells: HEK-Blue hTLR2 (HEK reporter cell line)
From the text: (§1) HEK-BIue™ hTLR4 and HEK-BIue™ hTLR2 (InvivoGen) are cell lines designed to study the activation of human TLR4 and TLR2 receptors, respectively, by monitoring the activation of transcription factors NF-kB and AP-1. Stimulation with TLR4 ligands (in the case of HEK-Blue hTLR4) or with TLR2 ligands (in the case of HEK-Blue hTLR2) activates NF-kB and AP-1, inducing the production and release of the SEAP reporter gene (phosphatase secreted embryonic alkaline) in the extracellular environment. The analysis of the reporter gene was performed using the QUANTI-Blue™ colorimetric assay (InvivoGen), a substrate of SEAP, which generates a chromogenic product whose absorbance is read at 630 nm. […] The molecules were subsequently tested on the HEK-Blue hTLR2 cell line with the aim of excluding the activation of this receptor. In this regard, HEK-Blue hTLR2 cells were treated with the same compounds and at the same concentrations as the tests conducted previously and the compound PAM2CSK4 was used as a positive control for TLR2 activation.

[2] = system: NF-kB; assay: RAW-Blue murine macrophages, NF-kB/AP-1 SEAP reporter; type: cell-based; details: RAW-blue line
Procedure: (§2) THP-1-X BIue™ cell lines, monocytes differentiated into macrophages following treatment with PMA 100 ng/mL, and RAW-BIue™ were used. Similarly to HEK-Blue cells, THP-1 X-Blue and […] stably express the SEAP reporter gene, under the control of transcription factors NF-kB and AP-1. The cells were treated as previously described.

[3] = system: THP-1-X-Blue cells; assay: MTT viability assay on differentiated THP-1-X-Blue cells; type: cell-based, human; details: THP-1-X-Blue macrophages; for cell viability at the highest concentration tested: 50 μM; for toxicity (MTT viability): 0.1-50 μM
Procedure: (§3) The toxicity of the compounds was evaluated by MTT viability assay (3-(4,5-dimethylthiazol-2-yl)-2,5-diphenyltetrazolium bromide).
A preliminary test to investigate the toxicity of this functionalized compound was performed, even though without a triplicate.

[4] = system: RAW-Blue; assay: MTT viability assay on RAW-Blue cells; type: cell-based; details: mouse macrophage line RAW-Blue
Procedure: as §3

[5] = system: interleukin-6 (IL-6), interleukin-8 (IL-8) and TNF-α; details: murine macrophages and neutrophil granulocytes; cited from earlier work
[6] = system: Escherichia coli; details: one dose one day prior to microbial inoculation; cited from earlier work
[7] = tumour-affected patients; cited from earlier work
[8] = molecular target: T2, human TLR4 (Homo sapiens, UniProt O00206+Q9Y6Y9); assay: HEK-Blue hTLR4 SEAP reporter assay (agonist activity, QUANTI-Blue); type: cell-based; details: HEK-Blue hTLR4 cells, 0.1-25 μM, 18 hours, normalized to LPS
T2 construct: host or cells: HEK-Blue hTLR4 (HEK293-derived)
From the text: as §1, with “nm. The agonist activity of the molecules was tested by treating HEK-Blue hTLR4 cells for 18 hours with increasing concentrations of the compounds (0.1-1-10-25 μM) and using MPLA (0.1-1-10 μM) and S-LPS (100 ng/mL) as a reference and positive receptor activation control, respectively.” for “nm.”, “In this regard, HEK-Blue hTLR2 cells were treated with the same compounds and at the same concentrations as the tests conducted previously and the compound PAM2CSK4 was used as a positive control for TLR2 activation.” left out
The ability of FP molecules to activate human TLR4 was assessed using HEK-Blue hTLR4 cells. […]

[9] = molecular target: T2, human TLR4; assay: Inhibition of LPS-induced SEAP production in HEK-Blue hTLR4 cells (antagonism); type: cell-based
[10] = molecular target: T2, human TLR4; details: HEK-Blue hTLR4 cells, Experiment 2 of WO2019/092572; cited from earlier work
[11] = system: TLR4; details: both murine and human cells; cited from earlier work
[12] = system: NF-kB; assay: THP-1-X Blue macrophages, NF-kB/AP-1 SEAP reporter; type: cell-based, human
Procedure: as §2
FP200 activity was then assessed on human monocytes cell line THP-1-X-Blues, described before. Cells were treated with compounds FP11, FP112, FP20, FP200 and FP21 in increasing concentrations (0.1, 1, 10, 20 μM) and using MPLA (0.1-1-10 μM) and S-LPS (100 ng/mL) as a reference and positive receptor activation control, respectively.
Compound FP207, functionalized with MPA, was tested in vitro on human THP-1-XBlue cells to evaluate the NF-kB activation.

[13] = system: HEK-Blue Null cells; assay: HEK-Blue Null cells SEAP reporter (lack the LPS receptors); type: cell-based, human
[14] = Pilot in vivo toxicity of adjuvants in mice; set-up: species or system C57Bl/6 mice; details: 10 μg subcutaneously, over 7 days
Procedure: (§4) The ability of FP11 and FP112 to induce immune responses in vivo was compared to MPLA by evaluating antibody production in C57Bl/6 mice immunized with chicken ovalbumin (OVA) as a model antigen. Has been first evaluated the toxicity of FPs in a pilot experiment in which mice were injected subcutaneously with 10 μg of the FP11 and FP112. […] Next, mice were immunized with the tested adjuvants mixed with ovalbumin (OVA). The induction of antibody was evaluated 21 days post immunization.

[15] = system: C57Bl/6 mice immunized with chicken ovalbumin (OVA); assay: OVA immunization, adjuvant activity (anti-OVA total IgG); type: in vivo; details: for anti-OVA total IgG after prime immunization compared to MPLA-OVA immunized animals / anti-OVA total IgG after prime immunization compared to OVA-immunized control: 21 days post immunization
Procedure: as §4

[16] = system: Hek-Blue, Raw-Blue, THP-1 cells; assay: In vitro tests on Hek-Blue, Raw-Blue and THP-1 cells (summary statements); type: cell-based
[17] = system: Hek-Blue, Raw-Blue, THP-1 cells; details: prior art section, cited from earlier work
[18] = system: IL-1α, IL-1β, IL-6, TNF-α and IFNβ; details: cited from earlier work

T2 sequence (O00206 24-839): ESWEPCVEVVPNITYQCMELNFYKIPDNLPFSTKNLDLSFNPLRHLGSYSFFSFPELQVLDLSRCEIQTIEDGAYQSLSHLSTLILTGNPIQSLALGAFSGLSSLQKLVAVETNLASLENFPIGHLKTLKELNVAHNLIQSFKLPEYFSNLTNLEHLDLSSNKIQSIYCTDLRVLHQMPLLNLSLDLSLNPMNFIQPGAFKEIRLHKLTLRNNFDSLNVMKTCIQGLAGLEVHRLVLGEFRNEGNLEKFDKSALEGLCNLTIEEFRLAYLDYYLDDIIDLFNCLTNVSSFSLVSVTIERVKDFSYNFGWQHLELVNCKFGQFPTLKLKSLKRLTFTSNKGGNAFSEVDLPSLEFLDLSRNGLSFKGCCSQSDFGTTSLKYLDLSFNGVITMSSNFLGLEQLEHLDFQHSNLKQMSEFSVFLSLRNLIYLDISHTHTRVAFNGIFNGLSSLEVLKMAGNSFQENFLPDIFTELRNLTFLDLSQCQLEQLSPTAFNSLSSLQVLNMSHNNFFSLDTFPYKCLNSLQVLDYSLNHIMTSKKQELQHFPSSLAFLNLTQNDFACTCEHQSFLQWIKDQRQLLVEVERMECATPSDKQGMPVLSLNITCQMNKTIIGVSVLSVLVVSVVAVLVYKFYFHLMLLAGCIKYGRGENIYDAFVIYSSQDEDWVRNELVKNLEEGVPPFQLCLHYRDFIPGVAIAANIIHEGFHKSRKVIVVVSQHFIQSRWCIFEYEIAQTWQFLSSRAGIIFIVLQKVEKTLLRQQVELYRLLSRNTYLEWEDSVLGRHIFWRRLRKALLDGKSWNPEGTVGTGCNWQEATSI
T2 sequence (Q9Y6Y9 17-160 limits assumed): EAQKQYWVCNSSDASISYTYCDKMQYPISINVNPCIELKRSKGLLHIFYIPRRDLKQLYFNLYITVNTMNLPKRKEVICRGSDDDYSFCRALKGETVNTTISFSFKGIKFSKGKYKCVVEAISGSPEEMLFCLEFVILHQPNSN
T1 sequence (O60603 21-784): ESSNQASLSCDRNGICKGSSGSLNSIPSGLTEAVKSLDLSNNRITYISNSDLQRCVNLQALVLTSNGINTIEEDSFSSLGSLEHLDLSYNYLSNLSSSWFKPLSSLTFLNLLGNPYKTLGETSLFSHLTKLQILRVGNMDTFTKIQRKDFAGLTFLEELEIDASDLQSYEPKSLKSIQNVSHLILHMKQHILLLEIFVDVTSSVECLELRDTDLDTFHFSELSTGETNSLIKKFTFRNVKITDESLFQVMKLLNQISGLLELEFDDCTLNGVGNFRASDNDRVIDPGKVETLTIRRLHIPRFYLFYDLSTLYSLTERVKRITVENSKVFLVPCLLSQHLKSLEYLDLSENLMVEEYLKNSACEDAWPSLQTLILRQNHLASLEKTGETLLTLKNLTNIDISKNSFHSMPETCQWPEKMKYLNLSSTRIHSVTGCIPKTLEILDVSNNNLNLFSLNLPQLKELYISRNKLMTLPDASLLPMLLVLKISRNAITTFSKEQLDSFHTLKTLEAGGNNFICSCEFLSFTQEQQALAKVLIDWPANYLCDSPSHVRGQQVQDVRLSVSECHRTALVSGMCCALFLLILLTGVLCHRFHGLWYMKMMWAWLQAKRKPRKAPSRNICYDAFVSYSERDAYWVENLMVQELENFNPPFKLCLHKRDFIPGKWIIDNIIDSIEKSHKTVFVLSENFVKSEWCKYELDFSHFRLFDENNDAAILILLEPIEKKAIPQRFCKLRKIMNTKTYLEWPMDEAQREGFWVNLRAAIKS

CCCCCCCCCCCCCC(=O)NC1C(OC(=O)CCCCCCCCCCCCC)OC(CO)C(OP(=O)([O-])[O-])C1OC(=O)CCCCCCCCCCCCC.[Na+].[Na+] (centres unmarked) [FP23]
activation of TLR2 (SEAP) [1]: did not produce any activation | lowest concentration tested at which the compounds are active [2]: 0.1 µM | cell viability at the highest concentration tested [3]: decrease in cell viability | toxicity (MTT viability) [3]: non-toxic | toxicity (MTT viability) ([4]; 25 μM): show toxicity | toxicity (MTT viability) ([4]; 50 μM): increase in the toxicity

CCCCCCCCCCC[C@@H](O)CC(=O)N[C@H]1[C@@H](OP(=O)(O)O)O[C@H](CO)[C@@H](OC(=O)C[C@H](O)CCCCCCCCCCC)[C@@H]1OC(=O)C[C@H](O)CCCCCCCCCCC [SDZ MRL 953]
stimulation of release of inflammatory cytokines [5]: potent activity | effect on curative effects of antibiotics [6]: dramatically increased the curative effects of antibiotics administered | granulocyte counts and serum cytokine levels [7]: increases granulocyte counts and serum levels of G-CSF and interleukin-6 (IL-6), but not of pro-inflammatory cytokines TNF-α, IL-1b, and IL-8 | safety and tolerability in humans [7]: safe and of excellent tolerability

CCCCCCCCCCCCCC(=O)NC1[C@H](OP(=O)(O)O)OC(COP(=O)(O)O)[C@@H](OC(=O)CCCCCCCCCCCCC)[C@@H]1OC(=O)CCCCCCCCCCCCC (some centres unmarked) [FP111]
activation of TLR4 (SEAP release, NF-kB and AP-1) [8]: inactive | inhibition of LPS-induced SEAP production (TLR4 antagonistic activity) [9]: did not inhibit LPS-induced SEAP production | TLR4 agonist activity [10]: completely inactive

CCCCCCCCCCCCCC(=O)OC(CCCCCCCCCCC)CC(=O)O[C@H]1[C@H](OP(=O)(O)O)[C@@H](CO)OC(O)[C@@H]1NC(=O)CC(O)CCCCCCCCCCC (some centres unmarked) [GLA60]
stimulation of TLR4-dependent production of cytokines TNF-α and IL-6 [11]: active

CCCCCCCCCCCC(=O)NC1C(OC(=O)CCCCCCCCC)OC(CO)C(OP(=O)([O-])[O-])C1OC(=O)CCCCCCCCC.[Na+].[Na+] (centres unmarked) [FP24]
activation of TLR2 (SEAP) [1]: did not produce any activation | concentration from which the compounds activate significantly [12]: 10 µM | lowest concentration tested at which the compounds are active [2]: 0.1 µM | toxicity (MTT viability) [3]: non-toxic | toxicity (MTT viability) ([4]; 50 μM): increase in the toxicity

CCCCCCCCCC(=O)NC1C(OC(=O)CCCCCCCCC)OC(CO)C(OP(=O)([O-])[O-])C1OC(=O)CCCCCCCCC.[Na+].[Na+] (centres unmarked) [FP22]
toxicity (MTT viability) [3]: non-toxic | toxicity (MTT viability) ([4]; 50 μM): increase in the toxicity

CCCCCCCCCCCC(=O)NC1C(OP(=O)(O)O)OC(CO)C(OC(=O)CCCCCCCCCCC)C1OC(=O)CCCCCCCCCCC (centres unmarked) [FP112]
inhibition of LPS-induced SEAP production (TLR4 antagonistic activity) [9]: did not inhibit LPS-induced SEAP production | activity on HEK-Blue Null cells [13]: lack of activity | adverse effect on mice (local response at injection site, weight, alertness) [14]: no collateral damage; also recorded: no obvious adverse effect | anti-OVA total IgG after prime immunization compared to MPLA-OVA immunized animals [15]: significantly lower levels | anti-OVA total IgG after prime immunization compared to OVA-immunized control [15]: marginally higher levels | ova-specific IgG levels after boost immunization ([15]; boost on day 22, examined 14 days later): higher than those in the FP11-immunized group | effectiveness/potency as vaccine adjuvant in vivo ([15]; compared to FP11 and MPLA): comparable to that of MPLA; also recorded: more effective adjuvant in vivo than FP11 and has a potency comparable or even greater than MPLA | toxicity in vitro [16]: low toxicity | pro-inflammatory activity ([16]; 10 μM): good pro-inflammatory activy | pro-inflammatory activity ([17]; 10 μM): good pro-inflammatory activity | toxicity in vitro [17]: low toxicity | release of proinflammatory cytokines [18]: able to stimulate the release of numerous proinflammatory cytokines

PAM2CSK4
activation of TLR2 (SEAP) [1]: strong activation of TLR2

CCCCCCCCCCCC(=O)NC1C(OC(=O)CCCCCCCCCCC)OC(CO)C(OP(=O)([O-])[O-])C1OC(=O)CCCCCCCCCCC.[Na+].[Na+] (centres unmarked) [FP20]
activation of TLR2 (SEAP) [1]: did not produce any activation | concentration from which the compounds activate significantly [12]: 10 µM | lowest concentration tested at which the compounds are active [2]: 0.1 µM | cell viability at the highest concentration tested [3]: decrease in cell viability | toxicity (MTT viability) [3]: non-toxic | toxicity (MTT viability) ([4]; 50 μM): increase in the toxicity

CCCCCCCCCCCCCC(=O)OC1OC(CO)C(OP(=O)([O-])[O-])C(OC(=O)CCCCCCCCCCCCC)C1NC(=O)CCCCCCCCCCC.[Na+].[Na+] (centres unmarked) [FP21]
activation of TLR2 (SEAP) [1]: did not produce any activation | concentration from which the compounds activate significantly [12]: 10 µM | lowest concentration tested at which the compounds are active [2]: 0.1 µM | toxicity (MTT viability) [3]: non-toxic | toxicity (MTT viability) ([4]; 50 μM): increase in the toxicity

CCCCCCCCCCCCCC(=O)NC1C(OC(=O)CCCCCCCCCCCCC)[C@H](OC(=O)CCCCCCCCCCCCC)C(CO)O[C@H]1OP(=O)(O)O (some centres unmarked) [FP11]
inhibition of LPS-induced SEAP production (TLR4 antagonistic activity) [9]: did not inhibit LPS-induced SEAP production | activity on HEK-Blue Null cells [13]: lack of activity | adverse effect on mice (local response at injection site, weight, alertness) [14]: no obvious adverse effect | anti-OVA total IgG after prime immunization compared to MPLA-OVA immunized animals [15]: significantly lower levels | anti-OVA total IgG after prime immunization compared to OVA-immunized control [15]: marginally higher levels
